Results as given in ChEMBL document CHEMBL1133487, “Synthesis and biological evaluation of 2,5-dihydropyrazol” (Bioorg Med Chem Lett, 2000).

Legend:
Phosphodiesterase 4 = Phosphodiesterase 4 (Homo sapiens, UniProt P27815+Q08499+Q07343+Q08493); assay: Inhibitory potency against guinea pig ventricular phosphodiesterase 4; assay type: protein assay, Cavia porcellus; settings: target entry is the homologue from another species
Phosphodiesterase 3 = Phosphodiesterase 3 (Homo sapiens, UniProt Q14432+Q13370); assay: Inhibitory potency against guinea pig ventricular phosphodiesterase 3; assay type: protein assay, Cavia porcellus; settings: target entry is the homologue from another species
Canis familiaris [1] = assay: Minimum emetic dose in dogs after intravenous administration; assay type: functional, Canis lupus familiaris
Cavia porcellus [2] = assay: Inhibition of histamine induced bronchoconstriction in guinea pig after intravenous administration; assay type: functional
Cavia porcellus [3] = assay: Inhibition of Eosinophilia after peroral administration at 10 mg/Kg compound in guinea pig; assay type: functional; settings: po
Canis familiaris [4] = assay: Minimum emetic dose in dogs after peroral administration; assay type: functional, Canis lupus familiaris

Row | IC50 (Phosphodiesterase 4) | IC50 (Phosphodiesterase 3) | SMILES | Dose (Canis familiaris [1]) | ED50 (Cavia porcellus [2]) | inhibition in vivo at 10 mg/kg (Cavia porcellus [3]) | Dose (Canis familiaris [4])
1 | 1.4 µM | > 20 µM | O=c1c2cn(Cc3ccccc3)c3ccccc3c-2nn1C1CC2CCC1C2 (configuration not stated) |  |  |  | 
2 | 24 µM | 102 µM | O=c1c2cn(Cc3ccccc3)c3ccccc3c-2nn1CC1CCCCC1 |  |  |  | 
3 | 6.4 µM | 120 µM | CCCCCn1nc2c3ccccc3n(Cc3ccccc3)cc-2c1=O |  |  |  | 
4 | 0.4 µM | > 20 µM | O=c1c2cn(CC3CCCCC3)c3ccccc3c-2nn1C1CCCC1 |  |  |  | 
5 | 7 µM | 25 µM | O=c1c2cn(Cc3ccccc3)c3ccccc3c-2nn1Cc1ccccc1 |  |  |  | 
6 | 2.1 µM | > 100 µM | CC(C)(C)n1nc2c3ccccc3n(Cc3ccccc3)cc-2c1=O |  |  | 51% | >10 mg/kg
7 | 0.4 µM | > 20 µM | O=c1c2cn(Cc3cccs3)c3ccccc3c-2nn1C1CCCC1 | >3 mg/kg | 0.083 mg/kg | 62% | 
8 | 0.5 µM | > 20 µM | CC(C)(C)n1nc2c3ccccc3n(CC3CCCCC3)cc-2c1=O |  |  |  | 
9 | 18 µM | 68 µM | CCCCn1nc2c3ccccc3n(-c3ccccc3)cc-2c1=O |  |  |  | 
10 | 2.1 µM | 31 µM | CCCCn1nc2c3ccccc3n(Cc3ccccc3)cc-2c1=O | >3 mg/kg | > 0.1 mg/kg | 52% | 
11 | 12 µM | > 200 µM | CCCCn1nc2c3ccccc3n(Cc3cccc(N)c3)cc-2c1=O |  |  |  | 
12 | 0.8 µM | > 200 µM | O=c1c2cn(Cc3ccccc3)c3ccccc3c-2nn1CC1CCC1 |  |  |  | 
13 | 2.7 µM | > 20 µM | CCCCn1nc2c3ccccc3n(Cc3cccs3)cc-2c1=O |  | 0.037 mg/kg | 56% | >10 mg/kg
14 | 0.05 µM | > 200 µM | CCn1c(=O)c2ccccc2n(-c2cccc([N+](=O)[O-])c2)c1=O [NITRAQUAZONE] |  |  |  | 

Second part, the compound before the results:

Row | SMILES | IC50 (Phosphodiesterase 4) | IC50 (Phosphodiesterase 3) | Dose (Canis familiaris [1]) | ED50 (Cavia porcellus [2]) | inhibition in vivo at 10 mg/kg (Cavia porcellus [3]) | Dose (Canis familiaris [4])
15 | O=c1c2cn(Cc3ccccc3)c3ccccc3c-2nn1C1CCCC1 | 0.7 µM | 26 µM |  |  |  | 
16 | CCCCn1[nH]c2c(cnc3ccccc32)c1=O | 90 µM | 136 µM |  |  |  | 
17 | CCCCn1nc2c3ccccc3n(CC3CCCCC3)cc-2c1=O | 0.7 µM | 111 µM | >1 mg/kg | > 0.1 mg/kg | 60% | 
18 | CCCCn1nc2c3ccccc3n(Cc3cccc([N+](=O)[O-])c3)cc-2c1=O | 11 µM | > 20 µM |  |  |  | 
19 | CC(C)(C)n1nc2c3ccccc3n(Cc3cccs3)cc-2c1=O | 0.8 µM | > 20 µM |  |  |  | 
20 | O=c1c2cn(Cc3ccccc3)c3ccccc3c-2nn1CCc1ccccc1 | 10 µM | > 100 µM |  |  |  | 
21 | O=c1[nH]nc2c3ccccc3n(Cc3ccccc3)cc1-2 | 37 µM | 48 µM |  |  |  | 
22 | CCCCn1nc2c3ccccc3n(CCc3ccccc3)cc-2c1=O | 160 µM | > 200 µM |  |  |  | 
23 | CCn1nc2c3ccccc3n(Cc3ccccc3)cc-2c1=O | 3 µM | 10 µM |  |  |  | 
24 | Cn1nc2c3ccccc3n(Cc3ccccc3)cc-2c1=O | 14 µM | 67 µM |  |  |  | 
25 | CCCCn1nc2c3ccccc3n(Cc3cccc(Cl)c3)cc-2c1=O | 2.3 µM | > 20 µM |  | 0.062 mg/kg | 53% | >10 mg/kg
26 | CC(C)n1nc2c3ccccc3n(Cc3ccccc3)cc-2c1=O | 1.2 µM | 86 µM |  |  |  | 
27 | COc1ccc(C2CNC(=O)C2)cc1OC1CCCC1 (configuration not stated) [ROLIPRAM] |  |  | 0.03 mg/kg | 0.004 mg/kg | 58% | 
